Measurements reported in ChEMBL document CHEMBL5375957, “Optimization of Novel α7 Nicotinic Acetylcholine Receptor Positive Allosteric Modulators and the Discovery of a Preclinical Development Candidate Molecule (RGH-560)” (J Med Chem, 2023).
≈ marks a conversion by molar mass, not a printed value. Calls of active or inactive are those of the source. The rule behind the calls is not given here.

Columns and labels:
[1] = Kinetic solubility of compound at pH 7.4 incubated for 2 hrs by UV-HPLC analysis; assay type: physicochemical; conditions: buffer, read-out: Kinetic_solubility
[2] = target: T1, Neuronal acetylcholine receptor subunit alpha-7 (Homo sapiens, UniProt P36544); assay: Positive allosteric modulator activity at human alpha7 nAChR expressed in Flp-In HEK293 cells assessed as increase in calcium influx incubated for 10 mins by fluorescence based analysis; assay type: cell-based
T1 sequence (P36544 whole entry): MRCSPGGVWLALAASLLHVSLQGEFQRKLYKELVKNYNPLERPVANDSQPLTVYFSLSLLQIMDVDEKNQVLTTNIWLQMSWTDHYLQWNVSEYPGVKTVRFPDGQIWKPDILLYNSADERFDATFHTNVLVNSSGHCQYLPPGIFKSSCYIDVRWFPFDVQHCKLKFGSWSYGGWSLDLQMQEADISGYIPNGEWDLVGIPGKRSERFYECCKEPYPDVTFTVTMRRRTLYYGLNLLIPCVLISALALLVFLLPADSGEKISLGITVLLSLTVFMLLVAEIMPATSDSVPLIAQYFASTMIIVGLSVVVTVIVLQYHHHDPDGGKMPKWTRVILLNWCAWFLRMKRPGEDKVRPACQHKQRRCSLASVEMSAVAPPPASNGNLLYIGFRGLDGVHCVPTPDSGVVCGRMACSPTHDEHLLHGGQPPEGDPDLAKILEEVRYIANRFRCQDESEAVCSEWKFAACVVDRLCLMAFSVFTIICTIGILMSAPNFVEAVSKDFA

[3] = Metabolic stability in human liver microsome assessed as intrinsic clearance measured per mg of protein incubated for 40 mins; assay type: ADME; conditions: liver microsomes, read-out: CLH
[4] = target: T1, Neuronal acetylcholine receptor subunit alpha-7; assay: Positive allosteric modulator activity at human alpha7 nAChR expressed in Flp-In HEK293 cells assessed as increase in calcium influx at 10 uM incubated for 10 mins by fluorescence based analysis relative to control; assay type: cell-based
[5] = Metabolic stability in Wistar rat liver microsome assessed as intrinsic clearance measured per mg of protein incubated for 40 mins; assay type: ADME; conditions: liver microsomes, read-out: CLH
[6] = Metabolic stability in NMRI mouse liver microsome assessed as intrinsic clearance measured per mg of protein incubated for 40 mins; assay type: ADME; conditions: liver microsomes, read-out: CLH
Mus musculus = assay: Cognitive activity in scopolamine induced amnesia NMRI mouse model assessed as recognition index at 1 to 10 mg/kg, ip pretreated with compound for 30 mins followed by scopolamine induction by Y maze test; assay type: functional, organism-based; conditions: dose 1-10 mg/kg
[7] = filed as positive allosteric modulator

Row | SMILES | solubility kinetic at 2 h [1] [µM] | EC50 [2] [nM] | microsomal CLint [3] [µL/min/mg] | Emax [4] [%] | microsomal CLint [5] [µL/min/mg] | microsomal CLint [6] [µL/min/mg] | Activity (Mus musculus) | Emax [4, 7] [%]
1 | Cn1ccc2cc(CNC(=O)N3CC(COc4ccc(C(F)(F)F)c(F)c4)C3)ccc21 | 0.2 (≈ 0.0871 µg/mL) | 45 | – | – | – | – | – | –
2 | Cn1cc(Cl)c2cc(CNC(=O)N3CC(COc4ccc(C(F)(F)F)cc4)C3)cnc21 | 7.2 (≈ 3.26 µg/mL) | 390 | 97 | – | – | – | – | –
3 | O=C(NCc1ccc2[nH]c(C3CC3)cc2c1)N1CC(COc2ccc(C(F)(F)F)cc2)C1 | 1.9 (≈ 0.843 µg/mL) | – | 25 | 3 | 56 | – | – | –
4 | Cc1nnc(-c2cc3cc(CNC(=O)N4CC(COc5ccc(C(F)(F)F)cc5)C4)ccc3[nH]2)o1 | 5.1 (≈ 2.48 µg/mL) | – | 16 | 1 | 14 | – | – | –
5 | O=C(NCc1ccc2[nH]ccc2c1)N1CC(COc2ccc(C(F)(F)F)cn2)C1 | 78.1 (≈ 31.6 µg/mL) | 150 | 37 | – | 63 | 78 | – | –
6 | Cn1ccc2cc(CNC(=O)N3CC(COc4ccc(F)cc4F)C3)ccc21 | 45.5 (≈ 17.5 µg/mL) | 270 | 48 | – | – | – | – | –
7 | Cn1c(Cl)cc2cc(CNC(=O)N3CC(COc4ccc(C(F)(F)F)cc4)C3)ccc21 | 0.2 (≈ 0.0904 µg/mL) | – | – | 7 | – | – | – | –
8 | Cc1cc2cc(CNC(=O)N3CC4(CC(=O)c5ccc(F)cc5O4)C3)ccc2[nH]1 | 38.7 (≈ 15.2 µg/mL) | 100 | 14 | – | 25 | 64 | Active | –
9 | O=C(NCc1ccc2[nH]ccc2c1)N1CC(COc2ccc(C(F)(F)F)cc2F)C1 | 16.3 (≈ 6.87 µg/mL) | 250 | 24 | – | 39 | 47 | – | –
10 | Cn1c(C2CC2)cc2cc(CNC(=O)N3CC(COc4ccc(C(F)(F)F)cc4)C3)cnc21 | 0.3 (≈ 0.138 µg/mL) | – | – | 0 | – | – | – | –
11 | Cc1cc2cc(CNC(=O)N3CC4(CC(=O)c5ccccc5O4)C3)ccc2[nH]1 | 51.5 (≈ 19.3 µg/mL) | 140 | 11 | – | 52 | 100 | – | –
12 | Cn1cc(Cl)c2cc(CNC(=O)N3CC4(CC(=O)c5ccccc5O4)C3)ccc21 | 9.7 (≈ 3.98 µg/mL) | – | 128 | – | – | – | – | –
13 | Cn1ccc2cc(CNC(=O)N3CC(COc4ccc(C(F)(F)F)nc4)C3)ccc21 | 1.8 (≈ 0.753 µg/mL) | 270 | 27 | – | – | – | – | –
14 | O=C(NCc1ccc2[nH]ccc2c1)N1CC(COc2ccc(C(F)(F)F)nc2)C1 | 86.8 (≈ 35.1 µg/mL) | 1100 | – | – | – | – | – | –
15 | Cc1cn(C)c2ncc(CNC(=O)N3CC(COc4ccc(C(F)(F)F)cc4)C3)cc12 | 14.2 (≈ 6.14 µg/mL) | 1200 | – | – | – | – | – | –
16 | Cn1cc(Cl)c2cc(CNC(=O)N3CC(COc4ccc(C(F)(F)F)cc4)C3)ccc21 | < 0.1 | 200 | 30 | – | 96 | 140 | – | –
17 | Cn1c(C#N)cc2cc(CNC(=O)N3CC(COc4ccc(C(F)(F)F)cc4)C3)ccc21 | 2.4 (≈ 1.06 µg/mL) | – | – | 15 | – | – | – | –
18 | Cc1cc2cc(CNC(=O)N3CC(COc4ccc(C(F)(F)F)cc4)C3)cnc2n1C | 0.6 (≈ 0.259 µg/mL) | 300 | 54 | – | – | – | – | –
19 | Cc1[nH]c2ccc(CNC(=O)N3CC4(CC(=O)c5ccccc5O4)C3)cc2c1Cl | 10 (≈ 4.1 µg/mL) | 460 | – | – | – | – | – | –
20 | Cn1cc(C#N)c2cc(CNC(=O)N3CC(COc4ccc(C(F)(F)F)cc4)C3)cnc21 | 20.4 (≈ 9.05 µg/mL) | – | 49 | 20 | 38 | – | – | –
21 | Cn1ccc2cc(CNC(=O)N3CC(COc4ccc(F)c(F)c4)C3)ccc21 | 1.2 (≈ 0.462 µg/mL) | 150 | 46 | – | – | – | – | –
22 | Cn1ccc2cc(CNC(=O)N3CC(COc4ccc(C(F)(F)F)cn4)C3)ccc21 | 0.9 (≈ 0.377 µg/mL) | 40 | 61 | – | – | – | – | –
23 | O=C(NCc1ccc2[nH]cc(Cl)c2c1)N1CC(COc2ccc(C(F)(F)F)cc2)C1 | 12 (≈ 5.25 µg/mL) | 500 | 25 | – | 23 | 43 | – | –
24 | CC(C)n1ccc2cc(CNC(=O)N3CC(COc4ccc(C(F)(F)F)cc4)C3)ccc21 | 0.9 (≈ 0.401 µg/mL) | – | – | 1 | – | – | – | –

Row | SMILES | solubility kinetic at 2 h [1] [µM] | EC50 [2] [nM] | microsomal CLint [3] [µL/min/mg] | Emax [4] [%] | microsomal CLint [5] [µL/min/mg] | microsomal CLint [6] [µL/min/mg] | Activity (Mus musculus) | Emax [4, 7] [%]
25 | Cn1ccc2cc(CNC(=O)N3CC(COc4ccc(Cl)c(Cl)c4)C3)ccc21 | 0.5 (≈ 0.209 µg/mL) | 80 | 61 | – | – | – | – | –
26 | O=C1CC2(CN(C(=O)NCc3ccc4[nH]c(Cl)cc4c3)C2)Oc2ccccc21 | 21.1 (≈ 8.35 µg/mL) | 230 | 22 | – | 176 | 178 | – | –
27 | O=C(NCc1cnc2[nH]c(Cl)cc2c1)N1CC(COc2ccc(C(F)(F)F)cc2)C1 | 4.5 (≈ 1.97 µg/mL) | 260 | 29 | – | – | – | – | –
28 | NC(=O)c1cc2cc(CNC(=O)N3CC(COc4ccc(C(F)(F)F)cc4)C3)ccc2[nH]1 | 6.9 (≈ 3.08 µg/mL) | – | – | 0 | – | – | – | –
29 | O=C(NCc1ccc2[nH]c(C(F)F)cc2c1)N1CC(COc2ccc(C(F)(F)F)cc2)C1 | 41 (≈ 18.6 µg/mL) | 220 | 27 | – | 23 | – | – | –
30 | Cn1ccc2cc(CNC(=O)N3CC(COc4ccc(F)cc4C#N)C3)ccc21 | 31 (≈ 12.2 µg/mL) | 2800 | – | – | – | – | – | –
31 | Cn1ccc2cc(CNC(=O)N3CC(COc4ccc(Cl)cc4)C3)cnc21 | 61.1 (≈ 23.5 µg/mL) | 360 | 34 | – | 53 | 57 | – | –
32 | CCn1ccc2cc(CNC(=O)N3CC(COc4ccc(C(F)(F)F)cc4)C3)ccc21 | 0.2 (≈ 0.0863 µg/mL) | – | 28 | – | – | – | – | 83
33 | O=C(NCc1ccc2c(ccn2CC(F)(F)F)c1)N1CC(COc2ccc(C(F)(F)F)cc2)C1 | 0.6 (≈ 0.291 µg/mL) | – | – | 3 | – | – | – | –
34 | Cc1ccc(OCC2CN(C(=O)NCc3ccc4[nH]c5c(c4c3)CCCC5)C2)cc1 | 4.4 (≈ 1.78 µg/mL) | – | – | 1 | – | – | – | –
35 | O=C(NCc1cnc2[nH]ccc2c1)N1CC(COc2ccc(C(F)(F)F)cc2)C1 | 49.9 (≈ 20.2 µg/mL) | 3100 | – | – | – | – | – | –
36 | Cc1cc2cc(CNC(=O)N3CC(COc4ccc(C(F)(F)F)cc4)C3)ccc2n1C | – | 70 | 41 | – | – | – | – | –
37 | Cc1cc2cc(CNC(=O)N3CC(COc4ccc(C(F)(F)F)cc4)C3)ccc2[nH]1 | 2 (≈ 0.835 µg/mL) | 15 | 29 | – | 34 | 94 | – | –
38 | Cn1cc(C#N)c2cc(CNC(=O)N3CC(COc4ccc(C(F)(F)F)cc4)C3)ccc21 | 5.3 (≈ 2.34 µg/mL) | 2200 | 43 | – | – | – | – | –
39 | Cn1ccc2cc(CNC(=O)N3CC(COc4ccc(F)c(C#N)c4)C3)ccc21 | 9.2 (≈ 3.61 µg/mL) | 590 | – | – | – | – | – | –
40 | Cc1cc2cc(CNC(=O)N3CC4(CC(=O)c5cc(F)cc(F)c5O4)C3)ccc2[nH]1 | 30.9 (≈ 12.7 µg/mL) | – | 8 | – | 80 | 121 | – | –
41 | O=C1CC2(CN(C(=O)NCc3ccc4[nH]ccc4c3)C2)Oc2ccccc21 | 87.1 (≈ 31.5 µg/mL) | – | – | – | – | – | – | 58
42 | Cc1ccc(OCC2CN(C(=O)NCc3ccc4[nH]c(C)c(C)c4c3)C2)cc1 | 13.4 (≈ 5.06 µg/mL) | 490 | 323 | – | – | – | – | –
43 | COCCc1cc2cc(CNC(=O)N3CC(COc4ccc(C(F)(F)F)cc4)C3)ccc2n1C | 0.1 (≈ 0.0476 µg/mL) | – | – | 0 | – | – | – | –
44 | Cc1cc2cc(CNC(=O)N3CC4(CC(=O)c5cc(F)ccc5O4)C3)ccc2[nH]1 | 36.4 (≈ 14.3 µg/mL) | – | 18 | – | 34 | 51 | – | –
45 | Cn1ccc2cc(CNC(=O)N3CC4(CC(=O)c5ccccc5O4)C3)ccc21 | 51.5 (≈ 19.3 µg/mL) | – | 24 | – | 46 | 52 | Active | –
46 | COCc1cc2cc(CNC(=O)N3CC(COc4ccc(C(F)(F)F)cc4)C3)cnc2[nH]1 | 2.9 (≈ 1.3 µg/mL) | – | 43 | 30 | 48 | – | – | –
47 | Cn1cc(F)c2cc(CNC(=O)N3CC(COc4ccc(C(F)(F)F)nc4)C3)ccc21 | 0.1 (≈ 0.0436 µg/mL) | 55 | 107 | – | – | – | – | –
48 | Cn1c(Cl)cc2cc(CNC(=O)N3CC(COc4ccc(C(F)(F)F)cc4)C3)cnc21 | 0.2 (≈ 0.0906 µg/mL) | – | – | 4 | – | – | – | –
